Laboratory results: article PMC5374622, “Morintides: cargo-free chitin-binding peptides from Moringa oleifera” (BMC Plant Biology, 2017)
Positions of bridges follow the written chain, without caps; N, C: chain ends. Non-standard residues stand in square brackets, D forms with d. No end group written: not given here. pGlu = O=C1CC[C@@H](C(=O)O)N1

Columns and labels:
[1] = format: physicochemical
Protocol: Purified mO1 (40 μg) was dissolved in water and incubated at 100 °C for 1 h. A linear peptide RV-14 ([…]) synthesized in our laboratory was used as a control. After incubation, the samples were subjected to RP-UPLC to assess the presence and extent of degradation.

Vero cells = test: Cytotoxicity assay (PrestoBlue cell viability); format: cell-based; settings: concentrations up to 100 μM (1–100 μM), 24 h, DMEM 10% FBS, absorbance 570 nm
Protocol: The cytotoxic effect of morintide, mO1 (1–100 μM) was tested on Vero cells (5 × 10^4 cells/ml) in Dulbecco’s modified Eagle’s medium (DMEM) supplemented with 10% fetal bovine serum (FBS) and 1% penicillin/streptomycin (PS). Vero cells (ATCC CCL-81) were a kind gift from Dr Liu Ding Xiang (School of Biological Sciences, Nanyang Technological University, Singapore). After 24 h of incubation, 10 μl of PrestoBlue® Cell Viability Reagent (Invitrogen, USA) was added to the wells and incubated at 37 °C for 1 h. After incubation, the absorbance was measured at 570 nm using a microplate reader.

[2] = Chitin binding assay with chitin beads
Protocol: Purified morintide (mO1) was incubated with chitin beads (New England Biolabs, Massachusetts, […]) in chitin binding buffer (140 mM NaCl, 10 mM Tris EDTA 1 mM; pH 8.0; then, 0.1% (v/v) Tween 20 was added) at 4 °C for 4 h. At each time point, the beads were centrifuged at 12,000 g for 1 min and the absorbance of the supernatant was read at 280 nm to assess binding. Elution of the bound peptide was performed using two methods. In the first method, 0.5 M acetic acid and heating at 100 °C for 30 min and 1 h was used, and in the second method, four elution buffers (10 mM Tris, 1 mM EDTA, 0.1% (v/v) Tween 20; pH 8.0) with increasing concentration of sodium chloride (300 mM, 500 mM, 700 mM, and 1 M) were used. Reduced and alkylated mO1 was used as a control. Supernatants were further analyzed by UPLC and MALDI-TOF to assess binding and elution.

[3] = Proteolytic enzyme stability assay, carboxypeptidase A; format: in vitro ADME; settings: isolated enzyme carboxypeptidase, 50 mM Tris-HCl with 100 mM NaCl pH 7.5, 37 °C, peptide:enzyme 50:1 (w/w), RP-UPLC area under the curve, MALDI-TOF MS, read-out: peptide remained intact after carboxypeptidase A treatment
Protocol: (§1) Purified mO1 was incubated at 37 °C with pepsin or carboxypeptidase A in 100 mM sodium citrate (pH 4.5) or 50 mM Tris–HCl with 100 mM NaCl (pH 7.5) at a final peptide to enzyme ratio (w/w) of 20:1 and 50:1, respectively. At each time point (0, 2, 4, 6 h) 50 μL of the sample was injected into the UPLC system, and the mass of peaks collected were analyzed by MALDI-TOF MS. A linear peptide WV-14 (WRLYRGRLYRRNHV) synthesized in-house was used as a control.

[4] = tested on: Alternaria brassiciola (CICC 2646); test: Disc diffusion assay; format: cell-based; settings: 17.5 to 70 μg mO1 on 6 mm discs, PDA plates, 24 h at 25 °C
Protocol: (§2) The susceptibility of seven fungal strains obtained from the China Center of Industrial Culture Collection (CICC), namely, Curvularia lunata (CICC 40301), Fusarium oxysporum (CICC 2532), Aspergillus niger (CICC 2089), Verticillium dahilae (CICC 2534), Rhizoctonia solani (CICC 40259), Alternaria alternata (CICC 2465) and Alternaria brassiciola (CICC 2646) to mO1 (17.5 to 70 μg) was tested using a disc diffusion assay. Potato dextrose agar (PDA) plates were used to grow C. lunata, R. solani, V. dahilae A. alternata, and A. brassiciola (A. niger was grown on malt extract (ME) agar plates) at 25 °C. When sufficient growth was observed, the mycelia were harvested by punching a hole in the growing fungi and transferring it to a new agar plate. The plate was incubated at 25 °C for 48 h to 72 h to allow formation of a radial mycelial colony. 6 mm discs impregnated with 20 μL of mO1 were placed equidistant (1 cm) from the growing ends of the mycelia and incubated for 24 h at 25 °C. Deionized water was used as a negative control. Formation of arc-shaped inhibition zones indicated susceptibility to mO1.

[5] = tested on: Alternaria alternata (CICC 2465); test: Disc diffusion assay; format: cell-based; settings: 17.5 to 70 μg mO1 on 6 mm discs, PDA plates, 24 h at 25 °C
Protocol: as §2

[6] = Proteolytic enzyme stability assay, pepsin; format: in vitro ADME; settings: isolated enzyme pepsin, 100 mM sodium citrate pH 4.5, 37 °C, peptide:enzyme 20:1 (w/w), RP-UPLC area under the curve, MALDI-TOF MS, read-out: peptide remained intact after pepsin treatment
Protocol: as §1

Substance | peptide degraded on heating [1] | cytotoxic effect on Vero cells (Vero cells) | time for elution from chitin beads with 0.5 M acetic acid with heating at 100 °C ([2]; 0.5 M acetic acid, 100 °C, RP-UPLC) | elution from chitin beads with elution buffers with up to 1 M NaCl ([2]; elution buffers 10 mM Tris, 1 mM EDTA, 0.1% Tween 20, pH 8.0 with 300 mM, 500 mM, 700 mM, 1 M NaCl) | time for elution from chitin beads in acidic conditions at high temperature ([2]; legend of Figure S2, acidic conditions at high temperature) | remaining at 6 h [3] | peptide remained intact after heating ([1]; 40 μg in water, 100 °C for 1 h, area under the curve of RP-UPLC chromatograms) | susceptibility (crescent-/arc-shaped inhibition zones) [4] | susceptibility (crescent-/arc-shaped inhibition zones) [5] | remaining at 6 h [6]
RLYRRGRLYRRNHV [RV-14, linear peptide synthesized in the authors' laboratory, control in the thermal stability assay, reference compound] | More than 50% |  |  |  |  |  |  |  |  | 
[pGlu]NCGRQAGNRACANQLCCSQYGFCGSTSEYCSRANGCQSNCRG (disulfide 3-18, 12-24, 17-31, 37-41) [mO1] |  | No significant cytotoxic effect | 1 h | could not be eluted | 30 min | > 95% | more than 95% | susceptible | susceptible | > 95%
